From patent publication US20070060604A1, “Antibiotic pharmaceutical composition with lysergol as bio-enhancer and method of treatment” (COUNCIL OF SCIENTIFIC AND INDUSTRIAL RESEARCH, priority 2002, published 2007) come the findings set out here.

The subject of assay [1] is Bacillus subtilis (ATCC 6051). Put plainly: Broth assay of killing action of antibiotic alone and with lysergol (viable cell count). Particulars: B. subtilis; antibiotic 0.4 μg/ml.
Assay [2] deals with Escherichia coli (ATCC 10536). The assay is described as above. Particulars: E. coli.
Assay [3] has as its system Mycobacterium smegmatis (ATCC 14468). The assay is described as above. Particulars: M. smegmatis; antibiotic 0.2 μg/ml.
Assay [4] concerns bacteria. The assay is described as follows: Growth of bacteria in presence of lysergol alone. Particulars: bacteria grown in presence of lysergol alone. The class given is cell-based. An excerpt: 1. […] Process for the Isolation of Lysergol

In the case of `CO[C@H]1/C=C/O[C@@]2(C)Oc3c(C)c(O)c4c(O)c(c(/C=N/N5CCN(C)CC5)c(O)c4c3C2=O)NC(=O)/C(C)=C\C=C\[C@H](C)[C@H](O)[C@@H](C)[C@@H](O)[C@@H](C)[C@H](OC(C)=O)[C@@H]1C` [Rifampicin], the “Survival fraction of viable cells upon treatment with antibiotic alone” value is 0.085-0.096 in assay [1], 0.35-0.45 in assay [2] (antibiotic 10 μg/ml), 0.25-0.30 in assay [2] (antibiotic 20 μg/ml) and 0.45-0.54 in assay [3].
As for `CN1C[C@H](CO)C=C2c3cccc4[nH]cc(c34)C[C@H]21` [lysergol, 9,10-Didehydro-6-methylergoline-8-[…]-methanol], the “Killing of bacteria by the compound as such” value in assay [4] is “no significant killing”.
